Measurements: EP0001516A1, “Beta-Lactam compounds, processes for their preparation, pharmaceutical compositions containing them and intermediates of use in their preparation” (GLAXO GROUP LIMITED, priority 1977, dated 1979)

Tests used:
[1] = biological target: partially purified β-lactamase K1; assay: β-Lactamase inhibition (hydrolysis of ampicillin); assay type: biochemical; conditions: β-lactamase KI; ampicillin sodium 500 µg/ml, 37°C, pH7
Procedure: (§1) The compounds have been tested for their inhibitory activity against partially purified β-lactamases from Escherichia coli (either TEM or RPI), Klebsiella aerogenes (K1) and Staphylococcus aureus (PCI). The substrate used was ampicillin sodium.
(§2) Ampicillin sodium at a concentration of 500 µg/ml was reacted with the enzyme at 37°C and pH7. The enzyme concentration was such as to destroy all the ampicillin within 10 minutes. The reaction was followed spectrophotometrically by observing the loss of absorption at 238 nm. Concentrations of the compound were added to inhibit the reaction, and the I5O value represents µg/ml of compound halving the initial velocity of hydrolysis of ampicillin.

[2] = biological target: T1, partially purified β-lactamase PCI (Staphylococcus aureus, UniProt P00807); assay: β-Lactamase inhibition (hydrolysis of ampicillin); assay type: biochemical; conditions: ampicillin sodium 500 µg/ml, 37°C, pH7, read-out: μg/ml of compound giving 50% inhibition of hydrolysis of ampicillin (converted)
T1 construct: partially purified β-lactamases from Escherichia coli (either TEM or RPI), Klebsiella aerogenes (K1) and Staphylococcus aureus (PCI); endogenous in cells; host or cells: Staphylococcus aureus (PCI), enzyme partially purified from the producing bacterium
T1 sequence (P00807 25-281): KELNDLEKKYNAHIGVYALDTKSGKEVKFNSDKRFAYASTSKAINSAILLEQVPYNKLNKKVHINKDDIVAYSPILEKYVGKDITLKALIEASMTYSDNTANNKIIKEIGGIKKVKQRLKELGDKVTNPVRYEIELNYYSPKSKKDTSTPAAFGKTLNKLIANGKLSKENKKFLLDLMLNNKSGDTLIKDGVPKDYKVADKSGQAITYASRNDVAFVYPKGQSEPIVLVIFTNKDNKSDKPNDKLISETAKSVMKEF
Procedure: as §1, §2

[3] = biological target: T2, partially purified β-lactamase TEM (Escherichia coli, UniProt P62593); assay: β-Lactamase inhibition (hydrolysis of ampicillin); assay type: biochemical; conditions: ampicillin sodium 500 µg/ml, 37°C, pH7, read-out: μg/ml of compound giving 50% inhibition of hydrolysis of ampicillin (converted)
T2 construct: partially purified β-lactamases from Escherichia coli (either TEM or RPI); endogenous in cells; host or cells: Escherichia coli carrying the TEM plasmid, enzyme partially purified from the bacterium
T2 sequence (P62593 24-286 limits assumed): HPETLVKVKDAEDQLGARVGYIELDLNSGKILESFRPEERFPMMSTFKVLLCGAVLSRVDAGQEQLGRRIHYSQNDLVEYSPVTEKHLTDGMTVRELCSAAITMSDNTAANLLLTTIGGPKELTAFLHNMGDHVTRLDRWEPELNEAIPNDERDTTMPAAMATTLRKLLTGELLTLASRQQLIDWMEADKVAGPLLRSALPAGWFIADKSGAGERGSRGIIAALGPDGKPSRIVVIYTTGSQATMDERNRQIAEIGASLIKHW
Procedure: as §1, §2

S. marcescens 1324E = assay: Minimum Inhibitory Concentration (MIC), agar dilution; assay type: cell-based; conditions: 18 hours at 37°C
Source text: (§3) Serial two-fold dilutions of freshly prepared test solution were made into Oxoid No. 1 Nutrient agar with or without added enrichment and poured into petri dishes. Plates were innoculated with a multipoint innoculator with innoculum containing approximately 10^5 colony forming units of the organisms shown in Table 1, all of which are clinical isolates.

K. aerogenes 1522E = assay: as above; assay type: cell-based; conditions: 18 hours at 37°C
Source text: as §3

H. influenzae 1184E = assay: as above; assay type: cell-based; conditions: 18 hours at 37°C
Source text: as §3

Micrococcus SP 1810E = assay: as above; assay type: cell-based; conditions: 18 hours at 37°C
Source text: as §3

E. cloacae 1321E = assay: as above; assay type: cell-based; conditions: 18 hours at 37°C
Source text: as §3

E. coli 851E = assay: as above; assay type: cell-based; conditions: 18 hours at 37°C
Source text: as §3

Staph. aureus 853E [4] = assay: as above; assay type: cell-based; conditions: 18 hours at 37°C
Source text: as §3

E. cloacae 1051E = assay: as above; assay type: cell-based; conditions: 18 hours at 37°C
Source text: as §3

Toxicity in mice = conditions: mouse, in vivo, ip; administered intraperitoneally to mice
K. aerogenes 1963E = assay: Synergy testing with amoxycillin (MIC, agar dilution); assay type: cell-based
Source text: as §3
(§4) Method as for 1, incorporating amoxycillin in serial two-fold dilutions along with a sub-inhibitory, fixed concentration of the test clavulanic acid derivative, as shown in the Table. All of the organisms are clinical isolates.

E. coli (TEM^+) 1193E = assay: as above; assay type: cell-based
Source text: as §3, §4

Pr. rettgeri 1356E = assay: as above; assay type: cell-based
Source text: as §3, §4

Staph. aureus 853E [5] = assay: as above; assay type: cell-based
Source text: as §3, §4

[6] = in the presence of 1µg/ml of compound
[7] = in the presence of 4µg/ml of compound

SMILES | μg/ml of compound giving 50% inhibition of hydrolysis of ampicillin [1] | IC50 [2] | IC50 [3] | MIC (agar dilution) of compound (S. marcescens 1324E) | MIC (agar dilution) of compound (K. aerogenes 1522E) | MIC (agar dilution) of compound (H. influenzae 1184E) | MIC (agar dilution) of compound (Micrococcus SP 1810E) | MIC (agar dilution) of compound (E. cloacae 1321E) | MIC (agar dilution) of compound (E. coli 851E) | MIC (agar dilution) of compound (Staph. aureus 853E [4]; Staph. aureus 835E) | MIC (agar dilution) of compound (E. cloacae 1051E) | LD50 (Toxicity in mice) | MIC of amoxycillin (K. aerogenes 1963E; [6]) | MIC of amoxycillin (E. coli (TEM^+) 1193E; [6]) | MIC of amoxycillin (Pr. rettgeri 1356E; [6]) | MIC of amoxycillin (Pr. rettgeri 1356E; [7]) | MIC (agar dilution) of compound (Staph. aureus 853E [4]; Staph. aureus 853E) | further results
CCOC(=O)c1nnn(C/C=C2\O[C@@H]3CC(=O)N3[C@H]2C(=O)O)c1C(=O)OCC [Example 2, Sodium (3R,5R,Z)-2-[2-(4,5-diethoxcarbonl-1,2,3-triazol-1-yl)-ethylidene]-clavam-3-carboxylate] | 0.8 µg/mL | 5330 nM | 761 nM | – | – | – | – | – | – | – | – | – | – | – | – | – | – | –
CCOC(=O)c1cn(C/C=C2\O[C@@H]3CC(=O)N3[C@H]2C(=O)O)nn1 [Example 4] | 0.35 µg/mL | 419 nM | – | 125 µg/mL | 8 µg/mL | 62 µg/mL | <0.1 µg/mL | 16 µg/mL | 4 µg/mL | <0.1 µg/mL | 16 µg/mL | > 500 mg/kg | 2 µg/mL | > 250 µg/mL | 125 µg/mL | 4 µg/mL | – | –
CC(=O)c1cn(C/C=C2\O[C@@H]3CC(=O)N3[C@H]2C(=O)O)nn1 [Example 6, Sodium (3R,5R,Z)-2-[2-(4-acetyl-1,2,3-triazol-l-yl)-ethlidene]-clavam-3-carboxylate] | 0.155 µg/mL | 616 nM | – | 62 µg/mL | 8 µg/mL | 62 µg/mL | <0.1 µg/mL | 8 µg/mL | 4 µg/mL | <0.1 µg/mL | 8 µg/mL | > 500 mg/kg | – | – | – | – | – | –
O=C(O)c1cn(C/C=C2\O[C@@H]3CC(=O)N3[C@H]2C(=O)O)nn1 [Example 8, Disodium (3R,5R.Z)-2-[2-(4-carboxy-1.2.3-triazol-l-yl)-ethylidene]-clavam-3-carboxylate] | 0.22 µg/mL | 9860 nM | 374 nM | 31 µg/mL | 16 µg/mL | 31 µg/mL | 8 µg/mL | 8 µg/mL | 8 µg/mL | 8 µg/mL | 16 µg/mL | – | – | – | – | – | – | –
CC(=O)c1cnnn1C/C=C1\O[C@@H]2CC(=O)N2[C@H]1C(=O)O [Example 10, Sodium (3R,5R.Z)-2-[2-(5-acetvl-1.2,3-triazol-l-yl)-ethylidene]-clavam-3-carboxylate] | 0.62 µg/mL | 2400 nM | 1980 nM | – | – | – | – | – | – | – | – | – | – | – | – | – | – | –
NC(=O)c1cn(C/C=C2\O[C@@H]3CC(=O)N3[C@H]2C(=O)O)nn1 [Example 12] | 0.34 µg/mL | 1230 nM | 426 nM | 8 µg/mL | 8 µg/mL | 31 µg/mL | 0.2 µg/mL | 4 µg/mL | 4 µg/mL | – | 4 µg/mL | – | 1 µg/mL | 62 µg/mL | 8 µg/mL | 1 µg/mL | 0.5 µg/mL | MIC of amoxycillin (K. aerogenes 1963E; [7]): < 0.1 µg/mL; MIC of amoxycillin (E. coli (TEM^+) 1193E; [7]): 1 µg/mL
CNC(=O)c1cn(C/C=C2\O[C@@H]3CC(=O)N3[C@H]2C(=O)O)nn1 [Example 14, Sodium (3R,5R.Z)-2-{2-[4-(N-methylcarbamoyl)-1.2.3-triazol-1-yl]-ethylidene}-clavam-3-carboxylate] | 0.7 µg/mL | 2180 nM | – | 31 µg/mL | 16 µg/mL | 31 µg/mL | 1 µg/mL | 16 µg/mL | 8 µg/mL | – | 16 µg/mL | > 500 mg/kg | 8 µg/mL | 62 µg/mL | 8 µg/mL | 1 µg/mL | 1 µg/mL | MIC of amoxycillin (K. aerogenes 1963E; [7]): 0.2 µg/mL; MIC of amoxycillin (E. coli (TEM^+) 1193E; [7]): 4 µg/mL; MIC of amoxycillin (Staph. aureus 853E [5]; [6]): < 0.1 µg/mL
N#Cc1cn(C/C=C2\O[C@@H]3CC(=O)N3[C@H]2C(=O)O)nn1 [Example 17, Sodium (3R,5R,Z)-2-[2-(4-cyano-1,2,3-triazol-1-yl)-ethylidene]clavam-3-carboxylate] | 0.39 µg/mL | 2540 nM | 363 nM | 31 µg/mL | 8 µg/mL | 16 µg/mL | – | 4 µg/mL | 2 µg/mL | <0.1 µg/mL | 4 µg/mL | > 500 mg/kg | 2 µg/mL | 31 µg/mL | 31 µg/mL | 2 µg/mL | – | MIC of amoxycillin (K. aerogenes 1963E; [7]): 0.5 µg/mL
COC(=O)c1cn(C/C=C2\O[C@@H]3CC(=O)N3[C@H]2C(=O)O)nn1 [Example 19, Sodium (3R,5R,Z)-2-[2-(4-methoxycarbonyl-1,2,3-triazol-1-y)ethylidene]clavam-3-carboxylate] | – | – | – | 62 µg/mL | 16 µg/mL | 62 µg/mL | – | 16 µg/mL | 4 µg/mL | – | 16 µg/mL | > 500 mg/kg | – | – | 16 µg/mL | 1 µg/mL | 0.5 µg/mL | –
O=C(O)[C@H]1/C(=C/Cn2ccnn2)O[C@@H]2CC(=O)N21 [Example 22] | – | – | – | 8 µg/mL | 8 µg/mL | 16 µg/mL | – | 8 µg/mL | 4 µg/mL | – | 8 µg/mL | – | – | – | – | – | 2 µg/mL | –
CC1(C)S[C@@H]2[C@H](NC(=O)[C@H](N)c3ccc(O)cc3)C(=O)N2[C@H]1C(=O)O [amoxycillin, reference compound] | – | – | – | – | – | – | – | – | – | – | – | – | – | – | – | – | – | MIC of amoxycillin (K. aerogenes 1963E; amoxycillin alone): 62 µg/mL; MIC of amoxycillin (E. coli (TEM^+) 1193E; amoxycillin alone): > 250 µg/mL; MIC of amoxycillin (Pr. rettgeri 1356E; amoxycillin alone): > 250 µg/mL; MIC of amoxycillin (Staph. aureus 853E [5]; amoxycillin alone): 2 µg/mL
